Data: PMC3639963, “A New Class of Small Molecule Inhibitor of BMP Signaling” (PLoS ONE, 2013)

Key:
Experiment in all cases: DSF thermal shift
Format in all cases: binding
Details in all cases: 10 µM inhibitor; read-out: Tm shift
ActRIIA = biological target: T1, ActRIIA (Homo sapiens, UniProt P27037)
T1 construct: purchased Nanosyn (enzymatic panel); SGC in-house recombinant human kinases (DSF panel); Invitrogen (ALK1-6)
Protocol: (§1) Thermal melting experiments were performed using a Real Time PCR machine Mx3005p (Stratagene) with a protein concentration of 1–2 µM and 10 µM inhibitor as described previously, [25]. […] Recombinant human kinases for DSF screening were prepared by SGC using published methods, [36].

CHEK2 = biological target: T2, CHEK2 (Homo sapiens, UniProt O96017)
T2 construct: purchased Nanosyn (enzymatic panel); SGC in-house recombinant human kinases (DSF panel); Invitrogen (ALK1-6)
Protocol: as §1

ERK1 = biological target: T3, ERK1 (Homo sapiens, UniProt P27361)
T3 construct: purchased Nanosyn (enzymatic panel); SGC in-house recombinant human kinases (DSF panel); Invitrogen (ALK1-6)
Protocol: as §1

JNK2 = biological target: T4, JNK2 (Homo sapiens, UniProt P45984)
T4 construct: purchased Nanosyn (enzymatic panel); SGC in-house recombinant human kinases (DSF panel); Invitrogen (ALK1-6)
Protocol: as §1

LOK = biological target: T5, LOK (Homo sapiens, UniProt O94804)
T5 construct: purchased Nanosyn (enzymatic panel); SGC in-house recombinant human kinases (DSF panel); Invitrogen (ALK1-6)
Protocol: as §1

MEK2 = biological target: T6, MEK2 (Homo sapiens, UniProt P36507)
T6 construct: purchased Nanosyn (enzymatic panel); SGC in-house recombinant human kinases (DSF panel); Invitrogen (ALK1-6)
Protocol: as §1

MRCKβ = biological target: T7, MRCKβ (Homo sapiens, UniProt Q9Y5S2)
T7 construct: purchased Nanosyn (enzymatic panel); SGC in-house recombinant human kinases (DSF panel); Invitrogen (ALK1-6)
Protocol: as §1

PIM1 = biological target: T8, PIM1 (Homo sapiens, UniProt P11309)
T8 construct: purchased Nanosyn (enzymatic panel); SGC in-house recombinant human kinases (DSF panel); Invitrogen (ALK1-6)
Protocol: as §1

PIM2 = biological target: T9, PIM2 (Homo sapiens, UniProt Q9P1W9)
T9 construct: purchased Nanosyn (enzymatic panel); SGC in-house recombinant human kinases (DSF panel); Invitrogen (ALK1-6)
Protocol: as §1

PLK4 = biological target: T10, PLK4 (Homo sapiens, UniProt O00444)
T10 construct: purchased Nanosyn (enzymatic panel); SGC in-house recombinant human kinases (DSF panel); Invitrogen (ALK1-6)
T10 sequence (O00444 1-970): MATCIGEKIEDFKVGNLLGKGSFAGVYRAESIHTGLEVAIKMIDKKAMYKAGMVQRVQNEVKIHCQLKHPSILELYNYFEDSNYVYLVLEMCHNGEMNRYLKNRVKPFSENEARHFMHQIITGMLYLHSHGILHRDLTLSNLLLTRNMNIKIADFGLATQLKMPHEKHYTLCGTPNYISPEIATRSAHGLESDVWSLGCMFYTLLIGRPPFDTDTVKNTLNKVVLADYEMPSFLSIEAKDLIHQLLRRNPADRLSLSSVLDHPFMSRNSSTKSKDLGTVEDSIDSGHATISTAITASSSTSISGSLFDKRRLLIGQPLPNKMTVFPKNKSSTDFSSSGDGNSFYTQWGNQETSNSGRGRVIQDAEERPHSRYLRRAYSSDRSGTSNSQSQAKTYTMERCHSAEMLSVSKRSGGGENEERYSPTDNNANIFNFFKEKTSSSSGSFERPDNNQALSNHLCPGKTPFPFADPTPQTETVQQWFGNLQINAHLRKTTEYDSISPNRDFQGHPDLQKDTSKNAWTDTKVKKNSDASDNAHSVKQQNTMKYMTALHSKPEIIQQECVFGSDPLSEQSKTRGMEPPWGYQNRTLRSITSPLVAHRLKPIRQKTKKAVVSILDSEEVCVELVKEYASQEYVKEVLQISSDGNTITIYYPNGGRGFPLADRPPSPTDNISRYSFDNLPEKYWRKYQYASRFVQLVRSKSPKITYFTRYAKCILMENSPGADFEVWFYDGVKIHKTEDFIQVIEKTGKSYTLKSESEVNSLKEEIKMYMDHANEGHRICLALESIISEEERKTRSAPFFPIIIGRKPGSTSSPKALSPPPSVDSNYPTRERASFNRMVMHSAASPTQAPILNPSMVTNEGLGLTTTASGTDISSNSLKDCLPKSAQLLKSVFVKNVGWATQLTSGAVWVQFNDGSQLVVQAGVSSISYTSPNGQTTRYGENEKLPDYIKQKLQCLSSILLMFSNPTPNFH
Protocol: as §1

PTK7 = biological target: T11, PTK7 (Homo sapiens, UniProt Q13308)
T11 construct: purchased Nanosyn (enzymatic panel); SGC in-house recombinant human kinases (DSF panel); Invitrogen (ALK1-6)
T11 sequence (Q13308 31-1070): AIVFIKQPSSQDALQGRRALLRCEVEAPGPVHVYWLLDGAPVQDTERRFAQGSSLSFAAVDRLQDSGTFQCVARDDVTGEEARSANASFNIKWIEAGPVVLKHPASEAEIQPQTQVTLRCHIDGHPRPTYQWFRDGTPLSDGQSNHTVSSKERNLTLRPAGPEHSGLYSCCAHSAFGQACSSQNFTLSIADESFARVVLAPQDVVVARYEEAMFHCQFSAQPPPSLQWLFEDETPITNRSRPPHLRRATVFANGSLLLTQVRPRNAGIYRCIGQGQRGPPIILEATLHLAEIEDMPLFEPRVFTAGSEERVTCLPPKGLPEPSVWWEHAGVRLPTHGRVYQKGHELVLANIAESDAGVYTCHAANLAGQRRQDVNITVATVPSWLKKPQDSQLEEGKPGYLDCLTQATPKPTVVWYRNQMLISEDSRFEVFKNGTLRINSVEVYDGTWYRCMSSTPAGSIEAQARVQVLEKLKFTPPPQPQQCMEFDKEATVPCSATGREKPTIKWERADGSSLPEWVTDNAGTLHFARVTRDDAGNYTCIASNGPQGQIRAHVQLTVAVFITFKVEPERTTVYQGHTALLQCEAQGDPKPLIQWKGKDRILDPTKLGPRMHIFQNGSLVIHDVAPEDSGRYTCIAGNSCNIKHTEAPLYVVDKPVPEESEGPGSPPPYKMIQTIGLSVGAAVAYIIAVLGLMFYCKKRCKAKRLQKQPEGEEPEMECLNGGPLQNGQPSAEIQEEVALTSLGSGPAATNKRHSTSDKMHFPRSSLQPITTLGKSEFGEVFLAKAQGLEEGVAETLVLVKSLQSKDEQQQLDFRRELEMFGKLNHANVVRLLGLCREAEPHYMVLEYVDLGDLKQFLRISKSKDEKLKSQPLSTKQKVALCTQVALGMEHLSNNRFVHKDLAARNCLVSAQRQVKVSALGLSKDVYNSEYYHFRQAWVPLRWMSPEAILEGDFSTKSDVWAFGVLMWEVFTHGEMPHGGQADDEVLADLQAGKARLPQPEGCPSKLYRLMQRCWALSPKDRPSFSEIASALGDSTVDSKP
Protocol: as §1

RSK1 = biological target: T12, RSK1 (Homo sapiens, UniProt Q15418)
T12 construct: purchased Nanosyn (enzymatic panel); SGC in-house recombinant human kinases (DSF panel); Invitrogen (ALK1-6)
Protocol: as §1

T12 sequence (Q15418 whole entry): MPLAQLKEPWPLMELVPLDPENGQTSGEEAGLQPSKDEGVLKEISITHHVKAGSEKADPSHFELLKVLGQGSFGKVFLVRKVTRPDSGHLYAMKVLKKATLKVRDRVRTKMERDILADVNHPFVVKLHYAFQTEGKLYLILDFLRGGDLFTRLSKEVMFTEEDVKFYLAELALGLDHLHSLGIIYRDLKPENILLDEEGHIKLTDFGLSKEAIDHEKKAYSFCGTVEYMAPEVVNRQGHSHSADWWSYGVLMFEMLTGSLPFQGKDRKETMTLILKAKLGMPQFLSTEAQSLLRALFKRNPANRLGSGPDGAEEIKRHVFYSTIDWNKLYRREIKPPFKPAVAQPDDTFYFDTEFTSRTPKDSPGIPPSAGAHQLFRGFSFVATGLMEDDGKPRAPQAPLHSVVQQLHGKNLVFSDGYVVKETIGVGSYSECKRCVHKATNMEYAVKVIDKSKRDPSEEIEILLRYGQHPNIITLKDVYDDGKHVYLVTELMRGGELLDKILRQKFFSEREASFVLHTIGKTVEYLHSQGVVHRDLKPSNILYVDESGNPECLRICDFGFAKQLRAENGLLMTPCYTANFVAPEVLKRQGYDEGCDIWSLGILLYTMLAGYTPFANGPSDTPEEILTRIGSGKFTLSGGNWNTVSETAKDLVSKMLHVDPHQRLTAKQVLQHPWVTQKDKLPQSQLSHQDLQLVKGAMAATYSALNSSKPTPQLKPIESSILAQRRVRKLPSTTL
T5 sequence (O94804 whole entry): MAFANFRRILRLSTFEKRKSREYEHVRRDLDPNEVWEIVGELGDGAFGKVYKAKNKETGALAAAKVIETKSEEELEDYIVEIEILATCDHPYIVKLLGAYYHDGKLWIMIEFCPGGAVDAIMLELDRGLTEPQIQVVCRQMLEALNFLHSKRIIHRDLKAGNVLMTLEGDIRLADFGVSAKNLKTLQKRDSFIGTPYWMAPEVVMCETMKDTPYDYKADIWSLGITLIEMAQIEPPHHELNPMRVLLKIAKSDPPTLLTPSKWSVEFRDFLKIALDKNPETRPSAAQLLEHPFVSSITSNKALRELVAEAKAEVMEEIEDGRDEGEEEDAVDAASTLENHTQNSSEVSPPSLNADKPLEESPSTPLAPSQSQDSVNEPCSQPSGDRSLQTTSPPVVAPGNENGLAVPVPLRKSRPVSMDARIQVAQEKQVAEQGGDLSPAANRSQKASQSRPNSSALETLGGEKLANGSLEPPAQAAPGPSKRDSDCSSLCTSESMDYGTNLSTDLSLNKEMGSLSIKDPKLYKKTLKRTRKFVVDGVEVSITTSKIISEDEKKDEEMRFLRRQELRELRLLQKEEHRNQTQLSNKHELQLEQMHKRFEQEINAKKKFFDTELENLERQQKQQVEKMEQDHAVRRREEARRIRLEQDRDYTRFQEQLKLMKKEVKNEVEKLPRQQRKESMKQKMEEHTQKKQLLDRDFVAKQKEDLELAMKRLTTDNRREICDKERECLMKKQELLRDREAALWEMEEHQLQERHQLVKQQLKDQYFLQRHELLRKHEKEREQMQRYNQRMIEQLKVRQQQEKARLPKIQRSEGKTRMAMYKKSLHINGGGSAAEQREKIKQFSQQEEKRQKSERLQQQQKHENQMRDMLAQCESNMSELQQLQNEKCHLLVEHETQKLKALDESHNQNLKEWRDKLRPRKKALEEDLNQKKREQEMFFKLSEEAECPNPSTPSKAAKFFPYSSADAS
T8 sequence (P11309 whole entry): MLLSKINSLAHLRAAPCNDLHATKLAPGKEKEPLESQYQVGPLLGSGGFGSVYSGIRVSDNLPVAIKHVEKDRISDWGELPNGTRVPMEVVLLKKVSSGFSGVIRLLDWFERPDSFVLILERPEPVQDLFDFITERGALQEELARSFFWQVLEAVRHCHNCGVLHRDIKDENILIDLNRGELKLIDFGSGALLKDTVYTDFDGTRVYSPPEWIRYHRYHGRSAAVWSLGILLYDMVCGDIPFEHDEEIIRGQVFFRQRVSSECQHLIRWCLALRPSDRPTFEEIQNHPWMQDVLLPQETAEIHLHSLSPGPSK
T3 sequence (P27361 whole entry): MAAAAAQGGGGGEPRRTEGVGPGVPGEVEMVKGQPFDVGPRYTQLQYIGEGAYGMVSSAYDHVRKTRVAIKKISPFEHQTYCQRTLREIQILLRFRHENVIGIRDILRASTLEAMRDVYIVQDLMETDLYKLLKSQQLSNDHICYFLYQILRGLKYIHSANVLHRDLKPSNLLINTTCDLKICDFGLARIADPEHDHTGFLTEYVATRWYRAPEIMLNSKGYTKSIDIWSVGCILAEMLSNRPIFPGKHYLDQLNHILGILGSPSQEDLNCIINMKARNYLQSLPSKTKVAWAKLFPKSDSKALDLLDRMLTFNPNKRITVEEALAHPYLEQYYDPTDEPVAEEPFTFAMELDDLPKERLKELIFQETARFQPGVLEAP
T1 sequence (P27037 20-513): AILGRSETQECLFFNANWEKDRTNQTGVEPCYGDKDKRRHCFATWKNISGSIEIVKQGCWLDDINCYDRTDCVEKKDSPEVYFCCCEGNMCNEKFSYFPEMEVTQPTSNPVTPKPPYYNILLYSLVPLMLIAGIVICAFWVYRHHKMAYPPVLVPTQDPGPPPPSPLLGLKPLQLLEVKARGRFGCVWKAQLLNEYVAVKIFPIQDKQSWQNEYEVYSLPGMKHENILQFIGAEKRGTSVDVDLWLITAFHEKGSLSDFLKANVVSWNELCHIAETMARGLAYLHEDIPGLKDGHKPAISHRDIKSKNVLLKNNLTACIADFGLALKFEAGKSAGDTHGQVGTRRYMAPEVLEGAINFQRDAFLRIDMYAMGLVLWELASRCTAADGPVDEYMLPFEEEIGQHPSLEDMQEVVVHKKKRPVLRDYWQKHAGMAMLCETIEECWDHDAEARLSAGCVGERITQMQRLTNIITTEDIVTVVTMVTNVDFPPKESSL
T4 sequence (P45984 whole entry): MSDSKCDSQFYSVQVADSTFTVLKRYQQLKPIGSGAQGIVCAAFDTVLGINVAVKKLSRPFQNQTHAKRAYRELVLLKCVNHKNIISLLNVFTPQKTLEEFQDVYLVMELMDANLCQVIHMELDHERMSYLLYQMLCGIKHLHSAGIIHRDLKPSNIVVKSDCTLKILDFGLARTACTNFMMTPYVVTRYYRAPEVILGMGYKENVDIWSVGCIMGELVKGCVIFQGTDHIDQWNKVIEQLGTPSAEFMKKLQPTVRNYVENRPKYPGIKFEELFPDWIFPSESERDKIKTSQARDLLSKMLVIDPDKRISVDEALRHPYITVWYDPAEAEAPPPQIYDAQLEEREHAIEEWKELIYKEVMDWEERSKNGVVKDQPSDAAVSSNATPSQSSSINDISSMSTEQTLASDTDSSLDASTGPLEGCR
T7 sequence (Q9Y5S2 whole entry): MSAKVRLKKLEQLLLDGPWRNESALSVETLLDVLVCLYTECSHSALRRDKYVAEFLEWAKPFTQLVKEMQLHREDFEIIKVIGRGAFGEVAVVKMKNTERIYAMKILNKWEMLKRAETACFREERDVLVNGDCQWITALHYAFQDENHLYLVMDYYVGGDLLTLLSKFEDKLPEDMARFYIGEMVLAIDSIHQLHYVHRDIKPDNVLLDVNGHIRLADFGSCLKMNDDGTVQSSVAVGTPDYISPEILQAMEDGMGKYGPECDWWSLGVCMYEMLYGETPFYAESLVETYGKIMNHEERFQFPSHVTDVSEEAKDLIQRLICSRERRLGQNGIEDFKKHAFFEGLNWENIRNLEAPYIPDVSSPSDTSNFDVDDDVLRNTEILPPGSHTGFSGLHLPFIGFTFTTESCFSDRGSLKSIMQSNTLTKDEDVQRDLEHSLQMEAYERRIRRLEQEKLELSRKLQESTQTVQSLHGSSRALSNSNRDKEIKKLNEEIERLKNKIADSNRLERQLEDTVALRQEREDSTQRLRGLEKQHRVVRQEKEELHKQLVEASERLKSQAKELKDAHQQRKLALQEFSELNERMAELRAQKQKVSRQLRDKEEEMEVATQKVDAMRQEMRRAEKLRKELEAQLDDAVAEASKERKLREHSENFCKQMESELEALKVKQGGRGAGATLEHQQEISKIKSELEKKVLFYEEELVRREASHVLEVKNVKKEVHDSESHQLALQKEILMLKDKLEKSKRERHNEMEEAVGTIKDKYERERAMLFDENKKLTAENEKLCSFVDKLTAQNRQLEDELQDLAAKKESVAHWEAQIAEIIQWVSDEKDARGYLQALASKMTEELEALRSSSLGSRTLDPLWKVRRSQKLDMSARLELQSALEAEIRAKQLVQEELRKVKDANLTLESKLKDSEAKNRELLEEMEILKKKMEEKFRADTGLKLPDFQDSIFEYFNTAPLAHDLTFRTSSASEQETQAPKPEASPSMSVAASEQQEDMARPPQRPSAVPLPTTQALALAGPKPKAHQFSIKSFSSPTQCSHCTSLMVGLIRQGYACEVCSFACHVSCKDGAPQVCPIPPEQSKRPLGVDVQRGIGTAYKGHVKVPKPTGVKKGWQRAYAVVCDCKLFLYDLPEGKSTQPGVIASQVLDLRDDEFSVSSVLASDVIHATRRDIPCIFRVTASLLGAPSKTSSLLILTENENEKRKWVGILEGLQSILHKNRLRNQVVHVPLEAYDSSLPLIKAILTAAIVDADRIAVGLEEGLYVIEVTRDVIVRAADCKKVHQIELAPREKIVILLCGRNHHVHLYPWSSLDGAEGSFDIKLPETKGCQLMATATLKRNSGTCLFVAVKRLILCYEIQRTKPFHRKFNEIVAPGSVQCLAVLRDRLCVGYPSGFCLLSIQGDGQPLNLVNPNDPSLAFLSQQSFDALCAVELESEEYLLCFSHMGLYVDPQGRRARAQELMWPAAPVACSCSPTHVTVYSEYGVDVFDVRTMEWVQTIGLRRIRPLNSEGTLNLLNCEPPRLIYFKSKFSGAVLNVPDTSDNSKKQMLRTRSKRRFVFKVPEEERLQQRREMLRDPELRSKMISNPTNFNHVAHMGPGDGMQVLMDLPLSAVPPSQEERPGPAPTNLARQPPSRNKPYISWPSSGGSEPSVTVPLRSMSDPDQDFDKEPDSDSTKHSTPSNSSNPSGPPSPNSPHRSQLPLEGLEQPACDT

Row | ΔTm at 10 µM (ActRIIA) | ΔTm at 10 µM (CHEK2) | ΔTm at 10 µM (ERK1) | ΔTm at 10 µM (JNK2) | ΔTm at 10 µM (LOK) | ΔTm at 10 µM (MEK2) | ΔTm at 10 µM (MRCKβ) | ΔTm at 10 µM (PIM1) | ΔTm at 10 µM (PIM2) | ΔTm at 10 µM (PLK4) | ΔTm at 10 µM (PTK7) | ΔTm at 10 µM (RSK1) | SMILES
1 | 8.3 °C | 0 °C | 0.2 °C | -0.1 °C | 2.1 °C | 2.4 °C | 0.4 °C | 0.1 °C | 0.1 °C | 0 °C | -1.3 °C | 1.1 °C | COc1cc(-c2cc(-c3cccc(O)c3)cnc2N)cc(OC)c1OC [K02288, 3-[6-amino-5-(3,4,5-trimethoxy-phenyl)-pyridin-3-yl]-phenol]
2 | 6.1 °C | 1.7 °C | 0 °C | 0.4 °C | 2.5 °C | -0.1 °C | 0 °C | 0.6 °C | 0.6 °C | 4.2 °C | -1.2 °C | 2.8 °C | c1cc(-c2cnn3cc(-c4ccc(OCCN5CCCCC5)cc4)cnc23)ccn1 [Dorsomorphin]

Row | SMILES | ΔTm at 10 µM (ActRIIA) | ΔTm at 10 µM (CHEK2) | ΔTm at 10 µM (ERK1) | ΔTm at 10 µM (JNK2) | ΔTm at 10 µM (LOK) | ΔTm at 10 µM (MEK2) | ΔTm at 10 µM (MRCKβ) | ΔTm at 10 µM (PIM1) | ΔTm at 10 µM (PIM2) | ΔTm at 10 µM (PLK4) | ΔTm at 10 µM (PTK7) | ΔTm at 10 µM (RSK1)
3 | c1ccc2c(-c3cnn4cc(-c5ccc(N6CCNCC6)cc5)cnc34)ccnc2c1 [LDN-193189] | 8.6 °C | 1.4 °C | 0.2 °C | -0.6 °C | 3.1 °C | 2.1 °C | 0.6 °C | 0.5 °C | -1.3 °C | 3.7 °C | -0.3 °C | 3.3 °C
